4 molecules from US20260263576A1, “DNA VACCINE TARGETING OVEREXPRESSED ANTIGENS IN COLORECTAL CANCER” (UNIVERSITY OF WASHINGTON, priority 2023, published 2026) can be followed below.

One assay deals with human PBMC. Kind of assay: Th ratio from IFN-γ and IL-10 ELISPOT, human PBMC screening. The class given is cell-based. The protocol: Vaccine. The vaccine consisted of the Th1-selective epitopes CDC25B-p132-156, COX2-p76-93, COX2-p276-295, EGFR-p880-895, and p962-976. The Th selective epitopes were determined in human PBMC screening by calculating the ratio of the product of the mean magnitude and percent incidence of response for IFN-γ and IL-10 ELISPOT assays (IFN-γ incidence X magnitude/IL-10 incidence X magnitude). Ratios greater than 7 defined Th1-selective epitopes (See Table 4).

Assay [1] has as its system tumor infiltrating lymphocytes. In words: Immunophenotyping of tumor infiltrating lymphocytes, ApcMin/+ mice. The assay is classed as in vivo. The following applies: APC^Min/+. The protocol:
(§1) Immunophenotyping. After removing up to 10 polyps in ApcMin/+, and 1-2 polyps in AOM treated mice, remaining tumors were removed from the intestinal tissue with forceps and applied to a 70 μm filter, washed through with flow cytometry buffer (PBS/1% FBS/2 mM EDTA) and red cells lysed. […] Prior to surface staining, cells were stained with Fixable viability dye 450 (eBiosciences; 1:1000) in PBS and then washed in flow cytometry buffer. Intracellular staining was performed using the FOXP3 buffer set (Thermo Fisher Scientific). Antibodies were obtained from BD Bioscience, Biolegend or Thermo Fisher Scientific. […] Analysis was performed on FACS Canto RUO and data analyzed using FlowJo software (BD Biosciences). […] Results are reported as a percentage of total cell number or a percentage of a specific cell population.

The test system of assay [2] is splenocytes stimulated with the vaccine peptide pool. In words: Antigen-specific IFN-γ ELISPOT of splenocytes, ApcMin/+ mice. The assay is classed as in vivo. The following applies: any regimen of naproxen, adjuvant only. The source says:
(§2) Analysis of peptide-specific T-cell responses. […] Data are reported as pg/ml.

Assay [3] deals with tumor infiltrating lymphocytes. Kind of assay: Immunophenotyping of tumor infiltrating lymphocytes, AOM-treated mice. The class given is in vivo. The protocol:
as §1

The subject of the next assay is Granzyme B. In words: Granzyme B ELISA of ELISPOT supernatant, ApcMin/+ mice. The assay is classed as in vivo.
Text: as §2
For orientation: An ELISA detects its analyte on a solid surface through an enzyme-linked reagent.

Assay [4] has as its system tumors from Apc^Min/+ mice. Kind of assay: Immunohistochemistry of tumors (CD8, PD-L1), ApcMin/+ mice. The class given is in vivo. The following applies: naproxen intermittently or continuously, p<0.001. As to the method:
Immunohistochemistry. Tumors removed from the intestine were covered with Tissue-Tek O.C.T Compound in a cryomold and stored at −80° C. Frozen blocks were sectioned and fixed with 75% acetone/25% methanol for 5 minutes. The slides were washed thrice with PBS and 10% goat serum was added for 1 hour at room temperature followed by an anti-mouse PD-L1 (abcam; clone: MIH6; 1/100 dilution) or anti-mouse CD8 (AbD Serotec; clone KT15; 1/200 dilution) overnight at 4° C. After washing, the slides were incubated with AlexaFluor 488 anti-rat IgG (abcam; 1:1000 dilution) for 1 hour at room temperature. Positive cells were counted in three 20× microscopic fields and expressed as the mean percent of total cells.

As to “COX2-p276-295: peptide EVFGLVPGLMMYATIWLREH (SEQ ID NO: 3)”, in the assay with human PBMC, the “Th ratio (IFN-γ incidence X magnitude/IL-10 incidence X magnitude)” value (from here on “Th ratio”) was 17.

As to “CDC25b-p132-156: peptide IQAASRIIRNEQFAIRRFQSMPVRL (SEQ ID NO: 1)”, in the assay on human PBMC, the “Th ratio” value is 186.

For “COX-2-p76-93: peptide YILTHFKGFWNVVNNIPF (SEQ ID NO: 2)”, in the assay with human PBMC, the “Th ratio” value worked out at 7.

On to `COc1ccc2cc([C@H](C)C(=O)O)ccc2c1` [naproxen], for which, in assay [1] (CON naproxen), the “% CD4 of CD3+” value was found to be 30%, the “% CD8 of CD3+” value came out at 35%, the “% CM of CD4+” value is reported as 14% and the “% CM of CD8+” value was 4%. Besides, in assay [1] (CON naproxen), the “% EM of CD4+” value is recorded as 60%, the “% EM of CD8+” value was determined as 48%, the “% Foxp3 of CD4” value was 4% and the “% GATA3 of CD4+” value is 5%. For the same molecule, in assay [1] (CON naproxen), the “% MDSC” value is 1%, the “% PD1 of CD4+” value was 3%, the “% PD1 of CD8+” value is recorded as 7% and the “% Tbet of CD3” value worked out at 9%. Moreover, in assay [1] (INT naproxen), the “% CD4 of CD3+” value is on record as 14%, the “% CD8 of CD3+” value is 15%, the “% CM of CD4+” value amounted to 18% and the “% CM of CD8+” value is recorded as 2%. For the same molecule, in assay [1] (INT naproxen), the “% EM of CD4+” value is recorded as 41%, the “% EM of CD8+” value is recorded as 44%, the “% Foxp3 of CD4” value turned out to be 2% and the “% GATA3 of CD4+” value is recorded as 4%. Further, in assay [1] (INT naproxen), the “% MDSC” value was found to be 4%, the “% PD1 of CD4+” value was 5%, the “% PD1 of CD8+” value is given as 7% and the “% Tbet of CD3” value turned out to be 11%. For the same molecule, the “antigen-specific IFN-γ” value in assay [2] is on record as “did not result in increased”. Besides, in assay [3] (CON naproxen), the “% CD4 of CD3+” value turned out to be 61%, the “% CD8 of CD3+” value is listed as 12%, the “% CM of CD4+” value is 6% and the “% CM of CD8+” value stood at 8%. For the same molecule, in assay [3] (CON naproxen), the “% EM of CD4+” value was 43%, the “% EM of CD8+” value is 52%, the “% Foxp3 of CD4” value was determined as 5% and the “% GATA3 of CD4+” value was 2%. Also, in assay [3] (CON naproxen), the “% MDSC” value is recorded as 6%, the “% PD1 of CD4+” value is recorded as 3%, the “% PD1 of CD8+” value is recorded as 4% and the “% Tbet of CD3” value stood at 10%. Besides, in assay [3] (INT naproxen), the “% CD4 of CD3+” value came to 66%, the “% CD8 of CD3+” value is reported as 11%, the “% CM of CD4+” value came to 6% and the “% CM of CD8+” value is 6%. For the same molecule, in assay [3] (INT naproxen), the “% EM of CD4+” value turned out to be 48%, the “% EM of CD8+” value is reported as 53%, the “% Foxp3 of CD4” value was found to be 5% and the “% GATA3 of CD4+” value turned out to be 3%. For the same molecule, in assay [3] (INT naproxen), the “% MDSC” value was 6%, the “% PD1 of CD4+” value stood at 4%, the “% PD1 of CD8+” value amounted to 4% and the “% Tbet of CD3” value came out at 9%. Moreover, the “Granzyme B levels, in words” value in the assay with Granzyme B is recorded as “did not result in increased”. Moreover, in assay [4], the “tumor cell expression of PD-L1” value is given as “reduced” and the “tumor infiltrating CD8+ T-cells” value was “increased”.
